The record followed here is PubChem BioAssay (NCI).

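48-hour exposure; five concentrations; linearly interpolated endpoints. GI50 marks 50% less growth. At the TGI there is no net growth.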

Some test systems named below: ACHN renal; K-562 leukemia; SNB-75 CNS; OVCAR-3 ovarian; SK-OV-3 ovarian; IGROV1 ovarian; TK-10 renal; SW-620 colon; A498 renal; 786-0 renal.
Holding throughout (assay): NCI tumour cell line growth inhibition, 48 h

As to `CCOC(=O)C1CCn2c(nc3c2c(=O)n(C)c(=O)n3C)S1` (configuration not stated), the TGI in the experiment with ACHN renal, in the experiment on K-562 leukemia, with SNB-75 CNS, in the experiment with OVCAR-3 ovarian, in the experiment on SK-OV-3 ovarian and in the experiment on IGROV1 ovarian was above 100 µM throughout. For the same compound, the TGI in the experiment on TK-10 renal and in the experiment with SW-620 colon was above 100 µM throughout.
Consider `CCC(C)C1NC(=O)C2CCCN2C(=O)C(CC2CO2)OC(=O)CCNC(=O)C(C)N(C)C(=O)C(C(C)C)N(C)C1=O` (configuration not stated), for which the TGI in the experiment with ACHN renal, in the experiment on K-562 leukemia, in the experiment with A498 renal, with OVCAR-3 ovarian, in the experiment with SK-OV-3 ovarian and in the experiment with IGROV1 ovarian was above 100 µM each time. Also, the TGI with TK-10 renal and in the experiment with SW-620 colon was above 100 µM throughout.
For the compound `CC1(C)CCC2(C(=O)OC3OC(CO)C(O)C(O)C3O)CCC3(C)C(=CCC4C5(C)CCC(OC6OC(CO)C(O)C(O)C6O)C(C)(C)C5CCC43C)C2C1` (configuration not stated), the TGI in the experiment on ACHN renal, with K-562 leukemia, with A498 renal, in the experiment with SNB-75 CNS, in the experiment on OVCAR-3 ovarian and in the experiment on 786-0 renal was above 25 µM each time. Further, the TGI in the experiment on SK-OV-3 ovarian, in the experiment with IGROV1 ovarian, with TK-10 renal and in the experiment on SW-620 colon was above 25 µM in each case.
Regarding `CC(=O)OC1CC(O)CC2=CCC3C4CCC(C(C)(O)C(O)CC5COC(=O)C5C)C4(C)CCC3C21C` (configuration not stated), the TGI with ACHN renal, in the experiment with K-562 leukemia, with A498 renal, in the experiment with SNB-75 CNS, in the experiment on OVCAR-3 ovarian and in the experiment with 786-0 renal was above 25 µM each time. Also, the TGI in the experiment with SK-OV-3 ovarian, with IGROV1 ovarian, with TK-10 renal and in the experiment on SW-620 colon was above 25 µM each time.
As for `O=C1c2cc3c(cc2-c2c1c1ccc(Cl)cc1c(=O)n2C[C@H](O)[C@@H](O)[C@H](O)CO)OCO3`, the GI50 with ACHN renal is 0.0254 µM; in the experiment on K-562 leukemia, 0.0342 µM; in the experiment with A498 renal, 0.0673 µM; in the experiment with OVCAR-3 ovarian, 0.0758 µM; in the experiment on IGROV1 ovarian, 0.126 µM; in the experiment with TK-10 renal, 0.271 µM. The GI50 in the experiment on SW-620 colon was 0.0163 µM. The TGI in the experiment on ACHN renal is 0.118 µM; with K-562 leukemia, above 100 µM; with A498 renal, 0.207 µM; in the experiment on OVCAR-3 ovarian, 0.452 µM; in the experiment on IGROV1 ovarian it was above 100 µM; in the experiment with TK-10 renal it was 1.58 µM. Besides, the TGI in the experiment with SW-620 colon turned out to be 0.325 µM.
As to `CCOC(=O)/C(=C\NCC(OCC)OCC)c1nc2ccccc2[nH]1`, the TGI in the experiment with ACHN renal is above 100 µM; with K-562 leukemia, 81 µM; with A498 renal, above 100 µM; in the experiment with SNB-75 CNS, 61.6 µM; in the experiment with OVCAR-3 ovarian, 61.9 µM; in the experiment with 786-0 renal, above 100 µM. For the same compound, the TGI in the experiment on SK-OV-3 ovarian, in the experiment with IGROV1 ovarian, in the experiment on TK-10 renal and in the experiment with SW-620 colon was above 100 µM in each case.
Consider `COC(=O)C1C(O)CCC2CN3CCc4c([nH]c5cccc(OC)c45)C3CC21` (configuration not stated), for which the TGI with ACHN renal, in the experiment with K-562 leukemia, with A498 renal, with SNB-75 CNS, in the experiment with OVCAR-3 ovarian and with 786-0 renal was above 100 µM in each case. Also, the TGI in the experiment on SK-OV-3 ovarian, with IGROV1 ovarian, in the experiment with TK-10 renal and in the experiment on SW-620 colon was above 100 µM each time.
For `O=S(=O)(/N=C(\NO)Nc1ccc(Cl)cc1)c1ccc(S(=O)(=O)c2ccccc2)s1`, the TGI in the experiment with ACHN renal is 89.3 µM; with K-562 leukemia, 40.3 µM; with A498 renal, 41.8 µM; in the experiment with OVCAR-3 ovarian, 55.9 µM; in the experiment with 786-0 renal, above 100 µM; with IGROV1 ovarian, 39.8 µM. For the same compound, the TGI with TK-10 renal is 66.3 µM; with SW-620 colon it was above 100 µM.
As to `Cc1cc(O)c(C(C)C)cc1CN1CCCCC1`, the TGI in the experiment on ACHN renal, with K-562 leukemia, with A498 renal, in the experiment on SNB-75 CNS, in the experiment with OVCAR-3 ovarian and with 786-0 renal was above 100 µM each time. The TGI in the experiment with SK-OV-3 ovarian, with IGROV1 ovarian, in the experiment with TK-10 renal and in the experiment with SW-620 colon was above 100 µM in each case.
As to `C/C(=N\NC(=O)c1cccnc1)c1cccc(/C(C)=N/NC(=O)c2cccnc2)n1`, the TGI is 12.2 µM in the experiment on ACHN renal; above 100 µM in the experiment with K-562 leukemia; 68.1 µM in the experiment with A498 renal; 42.5 µM in the experiment with SNB-75 CNS; 47.3 µM in the experiment with OVCAR-3 ovarian; 82.4 µM in the experiment on SK-OV-3 ovarian. In addition, the TGI with IGROV1 ovarian was 27.7 µM; in the experiment on TK-10 renal, above 100 µM; with SW-620 colon, above 100 µM. Besides, the GI50 in the experiment on K-562 leukemia is 3.04 µM; with A498 renal, 4.86 µM; in the experiment with SNB-75 CNS it was 10.3 µM; with OVCAR-3 ovarian, 2.05 µM; in the experiment on IGROV1 ovarian, 3.74 µM.
Take `O=S(=O)(O)c1cccc2c(N=Nc3c(O)ccc4ccccc34)cccc12`: the TGI with ACHN renal, with K-562 leukemia, in the experiment with A498 renal, in the experiment on SNB-75 CNS, with OVCAR-3 ovarian and with 786-0 renal was above 100 µM in each case. In addition, the TGI with SK-OV-3 ovarian, in the experiment on IGROV1 ovarian, with TK-10 renal and in the experiment on SW-620 colon was above 100 µM throughout.
For `CS(=O)(=O)c1nc(-c2cc3c(c(S(C)(=O)=O)n2)CCCC3)cc2c1CCCC2`, the TGI in the experiment with ACHN renal is above 100 µM; with K-562 leukemia, above 100 µM; in the experiment with A498 renal it was above 100 µM; with SNB-75 CNS it was 25.3 µM; with OVCAR-3 ovarian it was above 100 µM; with 786-0 renal, above 100 µM. Moreover, the TGI was above 64.7 µM in the experiment with SK-OV-3 ovarian, above 43.5 µM in the experiment with IGROV1 ovarian, above 100 µM in the experiment with TK-10 renal and above 100 µM in the experiment on SW-620 colon.
Turning to `O=[N+]([O-])c1ccc2c(c1)c(N=NC(=S)NC1CCCCC1)c(O)n2CN1CCOCC1`, the TGI in the experiment on ACHN renal is 18 µM; in the experiment with K-562 leukemia it was above 100 µM; in the experiment on A498 renal, 17.5 µM; in the experiment with SNB-75 CNS it was 24.2 µM; in the experiment with OVCAR-3 ovarian, 20.4 µM; in the experiment with 786-0 renal, 18.6 µM. Further, the TGI is 25.9 µM in the experiment on SK-OV-3 ovarian, 15.4 µM in the experiment on IGROV1 ovarian, 19.4 µM with TK-10 renal and above 100 µM in the experiment on SW-620 colon.
